What was measured:
S. aureus = test: Molecular phenotypic antimicrobial susceptibility test with direct PCR (no extraction DNA purification step); format: cell-based, Staphylococcus aureus; conditions: for Ct at Sensitive Breakpoint: S. aureus isolate NR-46412 HIP13170, Ct at control (average) 18.824; for Molecular Antimicrobial Susceptibility Result: S. aureus isolate NR-46412 HIP13170, at sensitive breakpoint
Method: Detection of Molecular Phenotypic Antimicrobial Susceptibility. Disclosed herein are the methods for the detection of phenotypic antimicrobial susceptibility via molecular methods. The present invention describes how a specimen 100 with a known microbial load is incubated and then exposed to a panel of antimicrobial agents to determine sensitivity (prevention of growth) or resistance (allowance of growth) to the specific antimicrobial agents tested utilizing molecular methods.
Sample Collection. Specimens 100 are collected from patients using sterile collection processes that are employed in routine clinical care. Specimens are transported to the testing facility in boric acid preservative.
Preparation of the Specimens for Testing. […] The process for pathogen isolation includes steps of harvesting the pathogen (e.g., via centrifugation), isolating pathogen DNA via a DNA isolation and/or purification kit, and performing PCR on the pathogen DNA via PCR components (e.g., primers, enzymes, buffers) as would be known to the skilled artisan. […] This aliquot is used for antimicrobial susceptibility testing if indicated based on the pathogen detection results. […] Specimens 100 with lower pathogen loads could also be utilized in the antibiotic susceptibility phase of testing with or without a longer incubation period.
Preparation of Antimicrobial Susceptibility Testing Plates. Antimicrobial solutions are prepared at known concentrations. The specific antimicrobials and their concentrations are selected based on the pathogen of interest and the described antimicrobial resistance breakpoints for that specimen pathogen and antimicrobial combination. These antimicrobials have been selected based on those commonly utilized by healthcare providers in routine clinical care for the specific type of suspected infection. The number and types of antimicrobials utilized can be customized based on the infection source, pathogen detected, patient-specific factors such as allergies or other health conditions (e.g., chronic kidney disease or concurrent medication use), or healthcare provider preferences such as antimicrobial availability or cost.
The antimicrobial solutions are prepared in liquid culture media (such as Muller Hinton Broth) to achieve the desired antimicrobial concentration and are then stored at −80° C. until use. For a given specimen, each antimicrobial is tested at a single or multiple antimicrobial concentration(s) which is its established breakpoints for sensitivity. The antimicrobial solutions are prepared and plated out for each specific pathogen. […] This allows for evaluation of pathogen load when no antimicrobial is present.
Specimen Exposure to Antimicrobial Agents. The 1 mL aliquot of the specimen 100 previously mixed with culture media and incubated is obtained. Using optical density measurements as a guide, the specimen 100 is diluted to 0.5 McFarland.
Antimicrobial exposure plates are typically placed into an incubator for 12-16 hours.
Nucleic Acid Amplification of Antimicrobial Agent Exposed Pathogens. The antimicrobial exposure plate is removed after the period of incubation. The specimen then undergoes a purification or lysis step. For example, the specimen may undergo a purification step (e.g., magnetic bead-based or other separation protocol to isolate genetic material). In another example, the specimen may undergo a cell lysis step. For example, buffer (e.g., lysis buffer) may be added and incubated in the thermal cycler for preparation for direct PCR. Next, the specimen may undergo a polymerase chain reaction (PCR) testing protocol, whereby a semi-quantitative PCR method is utilized. This may be completed either with or without a specific extraction protocol step. The pathogens can be individually targeted and detected, or a universal genetic sequence can be utilized to detect the antimicrobial susceptibility of the specimen as a whole.

[1] = tested on: Staphylococcus epidermidis; test: Traditional culture-based antimicrobial susceptibility test; format: cell-based
Text: Table 1 illustrates the results of an example antimicrobial agent susceptibility test of the current application versus a traditional culture-based antimicrobial agent susceptibility test for Staphylococcus epidermidis. This specimen underwent extraction or DNA purification prior to PCR. The results of the test of the current application are similar to the results from the traditional test, with the results from the test of the current application being reportable considerably earlier than the test of the traditional test due no pathogen isolation requirement and due to less incubation time being required for the test of the current application. Result Reporting to Healthcare Providers. The results from the antimicrobial exposure are reported to the ordering healthcare provider. This information can be utilized by the healthcare provider when selecting an antimicrobial regimen for their individual patient based on these individual specimen results and patient specific factors. […] The current standard of care for antimicrobial susceptibility testing involves the growth, isolation, and exposure of pathogens to antimicrobials. This traditional culture and sensitivity process can take multiple days to obtain results, limiting the ability of healthcare providers to receive timely results to make actionable changes in patient care or management. Healthcare providers desire a method to obtain antimicrobial susceptibility results with quicker turn-around-time. This application discloses a molecular-based phenotypic antimicrobial susceptibility method which involves pathogen exposure to a panel of antimicrobial agents at their specified minimum inhibitory concentration breakpoints for sensitivity. This method allows for more timely antimicrobial susceptibility results.

| Compound | Ct at Sensitive Breakpoint (S. aureus) | Molecular Antimicrobial Susceptibility Result (S. aureus) | Traditional Culture Result ([1]; S. epidermidis isolate 1) | Traditional Culture Result ([1]; S. epidermidis isolate 2) | Traditional Culture Result ([1]; S. epidermidis isolate 3) | Traditional Culture Result ([1]; S. epidermidis isolate 4) | Traditional Culture Result ([1]; S. epidermidis isolate 5) |
| --- | --- | --- | --- | --- | --- | --- | --- |
| C[C@H]1COc2c(N3CCN(C)CC3)c(F)cc3c(=O)c(C(=O)O)cn1c23 [Levofloxacin] | 18.264 | Resistant | – | – | – | – | – |
| CO[C@@]1(NC(=O)Cc2cccs2)C(=O)N2C(C(=O)O)=C(COC(N)=O)CS[C@@H]21 [Cefoxitin] | 14.322 | Resistant | – | – | – | – | – |
| O=C1CN(/N=C/c2ccc([N+](=O)[O-])o2)C(=O)N1 [Nitrofurantoin] | 31.922 | Sensitive (Antimicrobial wells with pathogen load detected below the control wells (typically >2 cycle thresholds later) may be reported as Sensitive) | – | – | – | – | – |
| Gentamicin | – | Resistant | – | – | – | – | – |
| Trimethoprim/Sulfamethoxazole [TMP/SMX] | 28.63 | Sensitive (Antimicrobial wells with pathogen load detected below the control wells (typically >2 cycle thresholds later) may be reported as Sensitive) | Resistant | Resistant | Resistant | Resistant | Resistant |
| O=C(O)c1cn(C2CC2)c2cc(N3CCNCC3)c(F)cc2c1=O [Ciprofloxacin] | 18.586 | Resistant | – | – | – | – | – |
| CO/N=C(\C(=O)N[C@@H]1C(=O)N2C(C(=O)[O-])=C(C[N+]3(C)CCCC3)CS[C@H]12)c1csc(N)n1 [Cefepime] | – | – | Resistant | Resistant | Resistant | Resistant | Resistant |
| CN[C@H](CC(C)C)C(=O)N[C@H]1C(=O)N[C@@H](CC(N)=O)C(=O)N[C@H]2C(=O)N[C@H]3C(=O)N[C@H](C(=O)N[C@H](C(=O)O)c4cc(O)cc(O)c4-c4cc3ccc4O)[C@H](O)c3ccc(c(Cl)c3)Oc3cc2cc(c3O[C@@H]2O[C@H](CO)[C@@H](O)[C@H](O)[C@H]2O[C@H]2C[C@](C)(N)[C@H](O)[C@H](C)O2)Oc2ccc(cc2Cl)[C@H]1O [Vancomycin] | 17.078 | Resistant | Sensitive | Sensitive | Sensitive | Sensitive | Sensitive |
| CN(C)[C@@H]1C(O)=C(C(N)=O)C(=O)[C@@]2(O)C(O)=C3C(=O)c4c(O)cccc4[C@@](C)(O)[C@H]3C[C@@H]12 [Tetracycline] | 18.43 | Resistant | – | – | – | – | – |
